Reference: ChEMBL document CHEMBL5500403, “Discovery of a Double-Stapled Short Peptide as a Long-Acting HIV-1 Inactivator with Potential for Oral Bioavailability” (J Med Chem, 2024)
Calls of active or inactive are those of the source. The calls are words filed in the database; no cut-off is given here. Bridge positions count the residues as written; N and C are the ends. Square brackets hold non-standard residues; d marks the D form. Peptide text beside a SMILES is read from it. S5 = C=CCCC[C@](C)(N)C(=O)O

Key:
[1] = Toxicity in Sprague-Dawley rat assessed as neural damage by measuring NeuN positive cell at 50 mg/kg,iv administration measured after 14 days; format: organism-based; details: in vivo, 336 h, time 14 day
[2] = Plasma protein binding in rat by LC-MS/MS analysis; format: ADME, cell-free; details: read-out: PPB (converted)
[3] = Toxicity in Sprague-Dawley rat assessed as necrosis in kidney at 50 mg/kg,iv administration measured after 14 days by hematoxylin and eosin staining based assay; format: organism-based; details: in vivo, 336 h, time 14 day
[4] = Biodistribution in Sprague-Dawley rat brain at 1 mg/kg,iv administration measured upto 12 days by LC-MS/MS analysis; format: ADME, organism-based; details: in vivo, 288 h, time < 12 day
[5] = tested on: Human immunodeficiency virus 1; experiment: Binding affinity to cytoplasmic LLP1 domain of HIV-1 GP41 assessed as change in enthalpy by isothermal titration calorimetry
[6] = AUClast in Sprague-Dawley rat at 10 mg/kg,iv administration measured upto 9 days by LC-MS/MS analysis; format: ADME, organism-based; details: in vivo, time < 9 day
[7] = Drug concentration in Sprague-Dawley rat plasma at 10 mg/kg,iv administrated upto 8 days by LC-MS/MS analysis; format: ADME, organism-based; details: in vivo, 192 h, time < 8 day
[8] = Volume of distribution at steady state in Sprague-Dawley rat at 1 mg/kg,iv administration measured upto 9 days by LC-MS/MS analysis; format: ADME, organism-based; details: in vivo, time < 9 day, read-out: Vdss
[9] = Selectivity index, ratio of CC50 for cytotoxicity against human MT2 cells to IC50 for antiviral activity against HIV-1 IIIB infected in human MT2 cells; format: toxicity, cell-based; details: read-out: Ratio CC50/IC50
[10] = Toxicity in female BALB/c mouse assessed as change in body weight at 100 mg/kg,iv administration measured upto 14 days; format: organism-based; details: in vivo, 336 h, time < 14 day
[11] = Toxicity in BALB/c mouse assessed as change in serum ALT level at 100 mg/kg,iv administration measured upto 6 days; format: organism-based; details: in vivo, 144 h, time < 6 day
[12] = Toxicity in BALB/c mouse assessed as histopathological change in liver at 20 mg/kg,iv administration measured after 14 days by hematoxylin and eosin staining based assay; format: organism-based; details: in vivo, 336 h, time 14 day
[13] = Elimination half life in Sprague-Dawley rat at 1 mg/kg,iv administration measured upto 9 days by LC-MS/MS analysis; format: ADME, organism-based; details: in vivo, time < 9 day, read-out: beta t1/2 (converted)
[14] = tested on: SARS-CoV-2; experiment: Antiviral activity against SARS-CoV-2 infected in human Caco-2 cells assessed as inhibition of viral growth at 2000 nM; format: functional, organism-based; details: Severe acute respiratory syndrome coronavirus 2
[15] = MRT in Sprague-Dawley rat at 10 mg/kg,iv administration measured upto 9 days by LC-MS/MS analysis; format: ADME, organism-based; details: in vivo, 216 h, time < 9 day
[16] = Total clearance in Sprague-Dawley rat at 10 mg/kg,iv administration measured upto 9 days by LC-MS/MS analysis; format: ADME, organism-based; details: in vivo, 216 h, time < 9 day
[17] = AUClast in Sprague-Dawley rat at 1 mg/kg,iv administration measured upto 9 days by LC-MS/MS analysis; format: ADME, organism-based; details: in vivo, time < 9 day
[18] = Volume of distribution at steady state in Sprague-Dawley rat at 10 mg/kg,iv administration measured upto 9 days by LC-MS/MS analysis; format: ADME, organism-based; details: in vivo, 216 h, time < 9 day
[19] = tested on: Human immunodeficiency virus 1; experiment: Antiviral activity against HIV-1 IIIB assessed as reduction in viral growth by measuring p24 antigen level incubated for 2 hrs by ELISA; format: functional, organism-based; details: Human immunodeficiency virus 1, IIIB
[20] = Total clearance in Sprague-Dawley rat at 1 mg/kg,iv administration measured upto 9 days by LC-MS/MS analysis; format: ADME, organism-based; details: in vivo, time < 9 day
[21] = Stability in rat plasma assessed as parent compound remaining at 1 ug/ml incubated for 1 hr by LC-MS/MS analysis; format: ADME, cell-free; details: at 1 µg/mL, read-out: Stability
[22] = Stability in rat liver assessed as parent compound remaining at 1 ug/ml incubated for 1 hr by LC-MS/MS analysis; format: ADME, tissue-based; details: at 1 µg/mL, read-out: Stability
[23] = Biodistribution in Sprague-Dawley rat brain assessed as fold increase in AUC at 1 mg/kg,iv administration measured after 12 days by LC-MS/MS analysis; format: ADME, organism-based; details: in vivo, 288 h, time 12 day
[24] = Toxicity in BALB/c mouse assessed as histopathological change in kidney at 100 mg/kg,iv administration measured after 14 days by hematoxylin and eosin staining based assay; format: organism-based; details: in vivo, 336 h, time 14 day
[25] = Toxicity in BALB/c mouse assessed as change in serum ALT level at 20 mg/kg,iv administration measured upto 6 days; format: organism-based; details: in vivo, 144 h, time < 6 day
[26] = Plasma protein binding in human by LC-MS/MS analysis; format: ADME, cell-free; details: read-out: PPB (converted)
[27] = Toxicity in BALB/c mouse assessed as histopathological change in liver at 100 mg/kg,iv administration measured after 14 days by hematoxylin and eosin staining based assay; format: organism-based; details: in vivo, 336 h, time 14 day
[28] = Toxicity in Sprague-Dawley rat assessed as inflammatory cell infiltration in kidney at 50 mg/kg,iv administration measured after 14 days by hematoxylin and eosin staining based assay; format: organism-based; details: in vivo, 336 h, time 14 day
[29] = Drug concentration in Sprague-Dawley rat plasma at 50 mg/kg,po administrated for 15 hrs by LC-MS/MS analysis; format: ADME, organism-based; details: in vivo
[30] = Toxicity in BALB/c mouse assessed as histopathological change in kidney at 20 mg/kg,iv administration measured after 14 days by hematoxylin and eosin staining based assay; format: organism-based; details: in vivo, 336 h, time 14 day
[31] = Biodistribution in Sprague-Dawley rat lymph node assessed as fold increase in AUC at 1 mg/kg,iv administration measured after 12 days by LC-MS/MS analysis; format: ADME, organism-based; details: in vivo, 288 h, time 12 day
[32] = tested on: proteinase K; experiment: Proteolytic stability assessed as proteinase K (unknown origin) mediated compound degradation by measuring parent compound remaining incubated for 4 hrs by LC-MS/MS analysis; format: ADME; details: human, read-out: Stability
[33] = Half life in Sprague-Dawley rat plasma at 50 mg/kg,po administrated for 15 hrs by LC-MS/MS analysis; format: ADME, organism-based
[34] = tested on: Human immunodeficiency virus 1; experiment: Antiviral activity against HIV-1 IIIB infected in human MT2 cells assessed as inhibition of viral growth at 5 uM preincubation of compound with 10% HSA; format: functional, organism-based
[35] = Toxicity in Sprague-Dawley rat assessed as necrosis in liver at 50 mg/kg,iv administration measured after 14 days by hematoxylin and eosin staining based assay; format: organism-based; details: in vivo, 336 h, time 14 day
[36] = Drug concentration in Sprague-Dawley rat plasma assessed as fold increase in drug uptake at 10 mg/kg,iv administrated upto 8 days by LC-MS/MS analysis; format: ADME, organism-based; details: in vivo, 192 h, time < 8 day
[37] = Apparent permeability in human Caco-2 cells at 5 uM; format: ADME, cell-based
[38] = tested on: Human immunodeficiency virus 1; experiment: Antiviral activity against HIV-1 clinical isolate X4-89BZ167 assessed as reduction in viral growth by measuring p24 antigen level incubated for 2 hrs by ELISA; format: functional, organism-based; details: Human immunodeficiency virus 1, clinical isolate X4-89BZ167, 2 h
[39] = tested on: Human immunodeficiency virus 1; experiment: Antiviral activity against T20-resistant HIV-1 NL4-3 harboring […] V38E and N42S mutant infected in human MT2 cells assessed as inhibition of viral growth pretreated with virus for 30 mins followed by infection with cells incubated for 72 hrs by ELISA; format: functional, organism-based

For `CC(=O)NCC(=O)N[C@@]1(C)CCC/C=C\CCC[C@@](C)(C(=O)N[C@@H](Cc2ccc(O)cc2)C(=O)N[C@@H](CC(C)C)C(=O)N[C@@]2(C)CCC/C=C\CCC[C@@](C)(C(=O)N[C@@H](Cc3ccc(O)cc3)C(=O)N[C@@H](Cc3c[nH]c4ccccc34)C(N)=O)NC(=O)[C@H](CC(C)C)NC(=O)[C@H](CC(C)C)NC(=O)[C@H](CC(N)=O)NC2=O)NC(=O)[C@H](CC(C)C)NC(=O)[C@H](C)NC(=O)[C@H](CCC(=O)O)NC1=O` (Ac-G[S5]EAL[S5]YL[S5]NLL[S5]YW-NH2; staple (Z) 2-6, 9-13), the Activity [1] was “Non-Toxic”, the fraction unbound [2] was 0.153 and the Activity [3] was “Non-Toxic”. The Drug uptake [4] was “Active”, the deltaH [5] was -2.84 10^4cal/mol and the AUC(0-t) at 216 h [6] was 334 µg·h/mL. For the same molecule, the Drug uptake [7] was “Active”, the Vd [8] was 2.32 L/kg and the selectivity ratio [9] was 216. The Activity [10] was “Non-Toxic”, the Activity [11] was “Non-Toxic” and the Activity [12] was “Non-Toxic”. The half-life [13] was over 70 h, the Activity [14] was “inactive” and the MRT [15] was 89.1 h. The CL [16] was 0.2 mL/min/kg, the AUC(0-t) at 216 h [17] was 40.4 µg·h/mL and the Vdss [18] was 3.6489 L/kg. The EC50 [19] was 8.21 nM, the clearance [20] was 0.31 mL/min/kg and the remaining at 1 h, 1 ug/ml [21] was over 99%. The remaining at 1 h, 1 ug/ml [22] was 100%, the “fold change (FC)” value [23] was 5 and the Activity [24] was “Non-Toxic”. The Activity [25] was “Non-Toxic”, the fraction unbound [26] was 0.182 and the Activity [27] was “Non-Toxic”. The Activity [28] was “Non-Toxic”, the Drug uptake [29] was “Active” and the Activity [30] was “Non-Toxic”. The “fold change (FC)” value [31] was 10, the remaining at 4 h [32] was 89.6% and the half-life [33] was 41.2 h. For the same molecule, the Activity [34] was “Active”, the Activity [35] was “Non-Toxic” and the “fold change (FC)” value [36] was 8.3. It also gave a Papp at 5 µM [37] of under 0.02 ×10⁻⁶ cm/s, an EC50 [38] of 44.4 nM and an IC50 [39] of 32.6 nM.
